Experimental data taken from patent US20060177374A1, “Treatment of cancer with active vitamin D compounds in combination with radiotherapeutic agents and treatments” (Novacea, Inc., priority 2003, published 2006).

Tests used:
[1] = in vivo; cited from earlier work
[2] = Solubility study of calcitriol in each formulation (light microscope); format: physicochemical; settings: heated to 50° C., cooled to room temperature, highest concentration tested
Protocol: To further assess the formulations of calcitriol, a solubility study was conducted to evaluate the amount of calcitriol soluble in each formulation. Calcitriol concentrations from 0.1 to 0.6 μg calcitriol/mg formulation were prepared by heating the formulations to 50° C. followed by addition of the appropriate mass of calcitriol. The formulations were then allowed to cool to room temperature and the presence of undissolved calcitriol was determined by a light microscope with and without polarizing light. For each formulation, calcitriol was soluble at the highest concentration tested, 0.6 μg calcitriol/mg formulation.

Compound | Hypercalcemic effect compared to calcitriol [1] | Calcitriol soluble in formulation [2]
C=C1/C(=C\C=C2/CCC[C@]3(C)C([C@H](C)CC#CC(C)(C)O)=CC[C@@H]23)C[C@@H](O)C[C@@H]1O [Ro23-7553] | reduced hypercalcemic effect | –
C=C1/C(=C\C=C2/CCC[C@]3(C)[C@@H]([C@H](C)CCCC(C)(C)O)CC[C@@H]23)C[C@@H](O)C[C@@H]1O [calcitriol, 1α,25-dihydroxyvitamin D3] | – | ≥ 0.6 μg calcitriol/mg formulation
